Source: patent US12630604B2, “Methods of making chimeric antigen receptor-expressing cells” (Novartis AG, priority 2018, dated 2026)
Entries after “also recorded” stand apart in the source; their conditions may differ.

Columns and labels:
Format in all cases: cell-based
T cells [1] = experiment: ARM-BCMA CAR expression kinetics in vitro with or without AZT (FACS); conditions: 30 μM and 100 μM doses
Method: In contrast to TM which measures lentiviral integration of the CAR transgene after 8-9 days, in the ARM process, the lentiviral transgene may not be fully integrated and truly expressed within 24 h post lentiviral addition, as lentiviral pseudotransduction could occur (Haas D L, et al., (2000) Mol Ther; 2(1):71-80; Galla M, et al., (2004) Mol Cell; 16(2):309-15). Therefore, the BCMA-CAR expression pattern was evaluated over time by extended culturing of ARM-BCMA CAR in vitro in the presence or absence of 3′-azido-3′-deoxythymidine (AZT) to evaluate the potential pseudotransduction versus stable integration and expression of the CAR transgene. Flow cytometry (FACS) analyses were performed to detect CAR surface expression at 24 h, 48 h, 72 h, 96 h and 168 h post T cell activation and transduction with the lentiviral vector. In some cases, ARM-BCMA CAR and an aliquot of this product were frozen down immediately upon harvest for additional characterization in other assays.

T cells [2] = experiment: T cell differentiation status by flow cytometry (CCR7/CD45RO), cytokine process; conditions: purified T cells cultured with cytokine 24 hours, no CD3/CD28 stimulation
Method: The cells were immunophenotyped for T cell differentiation status and transduction of the CAR was assessed using flow cytometry. The cells were washed, viability dye was added followed by the antibody cocktail (Table 20), and the plates were incubated for 20 minutes at room temperature. After the incubation, the cells were washed twice and fixed prior to being analyzed on the BD fortessa.

T cells [3] = experiment: T cell culture with cytokines after αCD3/αCD28 bead activation (expansion, size, viability); conditions: for T cell expansion: T cells activated with αCD3αCD28 beads at day 0 in presence of cytokine; for cell size and viability: after TCR engagement
Method: Previously frozen T cells were thawed and contacted with αCD3/αCD28 dynal beads (cell to bead ratio of 1 to 3) in the presence of indicated cytokines at day 0. From day 3, twice more T cell growth media (RPMI1640, 10% FBS, 2 mM L-glutamin, 100 μM non-essential amino acids, 1 mM sodium pyruvate, 10 mM Hepes, 55 μM β-mercaptoethanol, 10% FBS, and 100 U/ml of penicillin-streptomycin) was added to the plate with indicated cytokines (without cytokine, rhIL2 (501 U/ml, Novartis), IL6 (10 ng/ml, R&D systems), IL7 (10 ng/ml, Peprotech), IL15 (10 ng/ml, Peprotech), and IL21 (10 ng/ml, Peprotech)) at day 3, 5, 6, 9, 12, 15, and 18.

IL6Rβ expressing cells = experiment: Cell surface staining (IL6Rα/IL6Rβ and differentiation markers); conditions: after TCR engagement
Text: Cells were harvested at indicated time points and then stained with live/dead dye (eFluro780, eBioscience), CD3 (BioLegend, clone #: OKT3), CD4 (BioLegend, clone #: OKT4), CD8 (BD Bioscience, clone #: RPA-T8), CD45RO (BioLegend, clone #: UCHL1), CCR7 (BioLegend, clone #: G043H7), CD27 (BD Horizon, clone #: L128), CD127 (BioLegend, clone #: A019D5), CD57 (BioLegend, clone #: HCD57), CD126 (BioLegend, clone #: UV4), and CD130 (R&D Systems, clone #: 28126) antibodies. The cells were acquired by FACS Fortessa and then FlowJo program was used for data analysis.

Molecule: Cc1cn([C@H]2C[C@H](N=[N+]=[N-])[C@@H](CO)O2)c(=O)[nH]c1=O [AZT, 3′-azido-3′-deoxythymidine]
- inhibition of CAR expression (T cells [1]): effectively inhibit CAR expression

Molecule: IL-15: cytokine
- maintenance of self-renewing / naïve T cells (CD45RO−CCR7+) (T cells [2]): maintained self-renewing T cells in vitro
- T cell expansion (T cells [3]): enhanced T cell expansion; also recorded: the greatest enhancement
- cell size and viability (T cells [3]): did not affect cell size and viability
- expansion of IL6Rβ expressing cells (IL6Rβ expressing cells): enhanced expansion of IL6Rβ expressing cells

B1: IL7: cytokine (protein, UniProt P13232 26-177, looked up)
Interleukin-7: DCDIEGKDGKQYESVLMVSIDQLLDSMKEIGSNCLNNEFNFFKRHICDANKEGMFLFRAARKLRQFLKMNSTGDFDLHLLKVSEGTTILLNCTGQVKGRKPAALGEAQPTKSLEENKSLKEQKKLNDLCFLKRLLQEIKTCWNKILMGTKEH
- T cell expansion (T cells [3]): enhanced T cell expansion
- cell size and viability (T cells [3]): did not affect cell size and viability
